Results reported in article PMC5791972 (PLoS ONE, 2018).
“And” between values parts separate entries of the source, which are not always exact repeats. Equal entries are not always repeated. Values belong to the compound of their own block, whether it stands above or below them.

How the values were obtained:
M4 (h) = target: T1, M4 (h) (Homo sapiens, UniProt P08173)
T1 sequence (P08173 1-479): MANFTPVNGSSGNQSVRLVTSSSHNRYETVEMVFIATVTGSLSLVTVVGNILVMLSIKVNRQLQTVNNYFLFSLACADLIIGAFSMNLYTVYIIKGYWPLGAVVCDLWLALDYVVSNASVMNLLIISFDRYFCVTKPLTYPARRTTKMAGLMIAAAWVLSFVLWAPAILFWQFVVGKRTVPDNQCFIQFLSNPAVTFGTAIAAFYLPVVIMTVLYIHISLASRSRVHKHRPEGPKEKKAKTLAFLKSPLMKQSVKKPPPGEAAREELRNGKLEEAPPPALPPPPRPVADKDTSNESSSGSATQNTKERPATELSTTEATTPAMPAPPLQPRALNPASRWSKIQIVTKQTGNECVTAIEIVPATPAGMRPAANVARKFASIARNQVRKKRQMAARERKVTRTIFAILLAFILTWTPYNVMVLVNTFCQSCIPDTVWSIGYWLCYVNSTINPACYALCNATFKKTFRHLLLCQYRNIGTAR

M5 (h) = target: T2, M5 (h) (Homo sapiens, UniProt P08912); assay type: binding
T2 construct: host or cells: CHO cells
T2 sequence (P08912 1-532): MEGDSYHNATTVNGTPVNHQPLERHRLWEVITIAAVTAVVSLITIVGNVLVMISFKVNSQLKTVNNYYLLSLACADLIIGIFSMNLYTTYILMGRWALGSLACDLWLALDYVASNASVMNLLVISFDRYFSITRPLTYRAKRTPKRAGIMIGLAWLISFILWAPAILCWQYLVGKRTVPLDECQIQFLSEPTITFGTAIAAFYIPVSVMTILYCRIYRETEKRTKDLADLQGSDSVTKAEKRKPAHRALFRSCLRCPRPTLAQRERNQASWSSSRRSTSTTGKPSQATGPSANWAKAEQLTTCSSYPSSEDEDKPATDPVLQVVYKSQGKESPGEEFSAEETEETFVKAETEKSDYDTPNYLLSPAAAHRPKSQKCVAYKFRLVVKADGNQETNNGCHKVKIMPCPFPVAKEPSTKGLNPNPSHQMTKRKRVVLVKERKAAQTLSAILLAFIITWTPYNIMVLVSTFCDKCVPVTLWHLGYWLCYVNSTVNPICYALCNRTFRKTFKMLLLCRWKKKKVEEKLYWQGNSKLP

M3 (h) = M3 (h) (Homo sapiens, UniProt P20309)
Chain of M3 (h) (P20309 whole entry): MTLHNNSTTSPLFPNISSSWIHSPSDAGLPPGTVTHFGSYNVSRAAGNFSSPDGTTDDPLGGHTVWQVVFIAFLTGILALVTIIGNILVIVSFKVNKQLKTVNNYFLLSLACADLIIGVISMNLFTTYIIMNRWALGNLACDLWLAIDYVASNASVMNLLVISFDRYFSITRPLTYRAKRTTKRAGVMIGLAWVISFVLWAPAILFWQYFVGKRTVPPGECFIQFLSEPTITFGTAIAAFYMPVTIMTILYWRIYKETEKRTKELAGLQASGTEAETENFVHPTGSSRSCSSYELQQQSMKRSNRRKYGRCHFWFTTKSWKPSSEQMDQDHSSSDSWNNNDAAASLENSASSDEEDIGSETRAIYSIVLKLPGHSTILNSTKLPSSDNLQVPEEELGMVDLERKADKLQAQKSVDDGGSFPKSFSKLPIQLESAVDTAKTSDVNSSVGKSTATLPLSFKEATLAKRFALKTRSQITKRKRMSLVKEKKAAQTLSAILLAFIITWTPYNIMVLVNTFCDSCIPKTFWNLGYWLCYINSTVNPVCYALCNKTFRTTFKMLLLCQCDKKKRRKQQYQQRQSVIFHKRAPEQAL

NMRI mice = assay type: in vivo, mouse; settings: 8 mg/kg oral
Method: NMRI mice were habituated to their room for at least 2 to 3 weeks after the delivery and kept under standard conditions in groups of 4–5 animals per cage. Food and water were available ad libitum.
The tail suspension test was performed using with a BIOSEB system. In preparation for the experiment, a piece of tape (approx. 15 cm long) was wrapped around the end of the mouse tail approximately 2 mm before the tip. The tape was then attached to a holding device within the measuring unit at a height of approximately 30cm.
Movements of the animals were monitored and automatically evaluated by corresponding software. The duration of immobility during 6 min observation period was recorded. At the end of the experiment plasma samples were taken and the animals were sacrificed via isofluorane inhalation and subsequent decapitation.

GR (h) = target: T3, GR (h) (Homo sapiens, UniProt P04150); assay type: binding
T3 construct: IM-9 cells; host or cells: IM-9 cells (cytosol)
T3 sequence (P04150 whole entry): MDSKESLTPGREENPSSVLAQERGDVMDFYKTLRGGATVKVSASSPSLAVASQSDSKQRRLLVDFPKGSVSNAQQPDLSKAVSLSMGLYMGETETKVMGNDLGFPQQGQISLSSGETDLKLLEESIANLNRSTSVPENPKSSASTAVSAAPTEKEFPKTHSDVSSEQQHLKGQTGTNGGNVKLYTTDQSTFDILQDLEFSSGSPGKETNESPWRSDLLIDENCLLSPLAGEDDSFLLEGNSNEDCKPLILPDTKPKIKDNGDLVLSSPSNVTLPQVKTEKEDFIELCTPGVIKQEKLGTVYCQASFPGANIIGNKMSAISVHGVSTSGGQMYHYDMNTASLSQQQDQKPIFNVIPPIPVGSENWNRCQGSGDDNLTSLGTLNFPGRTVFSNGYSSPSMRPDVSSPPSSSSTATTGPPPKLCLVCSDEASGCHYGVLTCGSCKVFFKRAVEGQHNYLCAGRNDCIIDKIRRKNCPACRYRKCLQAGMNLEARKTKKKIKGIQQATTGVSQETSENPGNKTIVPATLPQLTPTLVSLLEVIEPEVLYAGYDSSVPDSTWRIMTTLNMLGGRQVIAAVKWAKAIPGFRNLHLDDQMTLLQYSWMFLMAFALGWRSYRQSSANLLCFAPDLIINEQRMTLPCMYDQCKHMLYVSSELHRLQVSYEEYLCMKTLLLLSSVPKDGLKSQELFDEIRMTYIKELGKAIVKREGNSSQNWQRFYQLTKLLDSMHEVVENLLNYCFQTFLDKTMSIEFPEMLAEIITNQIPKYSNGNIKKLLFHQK

5-HT6 (h) = 5-HT6 (h) (Homo sapiens, UniProt P50406)
Chain of 5-HT6 (h) (P50406 whole entry): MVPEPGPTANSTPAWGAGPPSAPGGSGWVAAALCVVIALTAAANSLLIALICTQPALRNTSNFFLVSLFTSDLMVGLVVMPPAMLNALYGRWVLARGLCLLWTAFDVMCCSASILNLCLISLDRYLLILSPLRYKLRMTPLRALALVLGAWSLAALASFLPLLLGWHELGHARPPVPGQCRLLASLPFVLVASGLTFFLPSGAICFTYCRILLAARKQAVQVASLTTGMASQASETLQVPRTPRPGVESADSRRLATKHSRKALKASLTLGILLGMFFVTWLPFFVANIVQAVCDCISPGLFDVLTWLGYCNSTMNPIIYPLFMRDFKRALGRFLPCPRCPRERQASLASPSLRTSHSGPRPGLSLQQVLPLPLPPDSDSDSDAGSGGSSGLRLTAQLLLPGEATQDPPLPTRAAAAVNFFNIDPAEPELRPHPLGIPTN

5-HT4e (h) = 5-HT4e (h) (Homo sapiens, UniProt Q13639)
Chain of 5-HT4e (h) (Q13639 1-378 isoform Q13639-5): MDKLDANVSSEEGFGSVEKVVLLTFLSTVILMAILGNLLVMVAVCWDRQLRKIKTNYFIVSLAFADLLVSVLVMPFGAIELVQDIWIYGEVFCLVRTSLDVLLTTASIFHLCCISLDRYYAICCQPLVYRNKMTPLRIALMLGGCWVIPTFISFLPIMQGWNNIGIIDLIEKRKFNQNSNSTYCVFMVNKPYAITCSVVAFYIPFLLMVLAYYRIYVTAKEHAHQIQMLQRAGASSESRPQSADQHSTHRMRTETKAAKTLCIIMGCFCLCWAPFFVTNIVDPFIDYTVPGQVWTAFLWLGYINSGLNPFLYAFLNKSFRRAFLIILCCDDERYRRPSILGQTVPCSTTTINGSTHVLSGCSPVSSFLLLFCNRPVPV

5-HT1B = 5-HT1B (Rattus norvegicus, UniProt P28564)
Chain of 5-HT1B (P28564 whole entry): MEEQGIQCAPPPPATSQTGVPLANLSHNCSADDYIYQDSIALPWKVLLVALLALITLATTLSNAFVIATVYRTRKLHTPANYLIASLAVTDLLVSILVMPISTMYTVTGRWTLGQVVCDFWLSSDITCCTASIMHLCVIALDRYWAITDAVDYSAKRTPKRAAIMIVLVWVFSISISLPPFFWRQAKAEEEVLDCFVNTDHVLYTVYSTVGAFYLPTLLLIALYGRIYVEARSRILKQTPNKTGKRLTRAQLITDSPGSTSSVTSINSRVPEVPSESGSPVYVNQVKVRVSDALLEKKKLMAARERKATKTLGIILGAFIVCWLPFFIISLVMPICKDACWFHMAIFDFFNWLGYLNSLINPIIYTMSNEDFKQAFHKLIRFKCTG

- nH (M4 (h)): 0.8
- IC50 (M5 (h)): 0.76 nM and 0.45 nM
- Ki (M5 (h)): 0.38 nM and 0.22 nM
- nH (M5 (h)): 0.8
- nH (M3 (h)): 1.2
SMILES: C[N+]1(C)CCC(OC(=O)C(c2ccccc2)c2ccccc2)CC1.[I-] [4-DAMP, reference compound]

SMILES: CNCCCN1c2ccccc2CCc2ccccc21 [desipramine, reference compound]
- time of immobility (NMRI mice): reduced the time of immobility

SMILES: C[C@@H]1C[C@H]2[C@@H]3CCC4=CC(=O)C=C[C@]4(C)[C@@]3(F)[C@@H](O)C[C@]2(C)[C@@]1(O)C(=O)CO [dexamethasone]
- nH (GR (h)): 1.1

- nH (5-HT6 (h)): 1.0
- nH (5-HT4e (h)): 0.9
- nH (5-HT1B): 0.7
SMILES: NCCc1c[nH]c2ccc(O)cc12 [serotonin]
